From US9656990B2, “Cathepsin cysteine protease inhibitors” (Merck Sharp & Dohme Corp., priority 2014, dated 2017) come the findings set out here.

In one test the target is human cathepsin K (UniProt P43236, Y175D/V274L, species not given). Nature of the test: Cathepsin K Assay. The format is biochemical. The settings on record: IP from dose response curve; Z-Leu-Arg-AMC substrate, pH 5.5; read-out: hrbCat K (IP (nM)).
The target in the next test is T1, human cathepsin F (Homo sapiens, UniProt Q9UBX1).
T1 sequence (Q9UBX1 271-484): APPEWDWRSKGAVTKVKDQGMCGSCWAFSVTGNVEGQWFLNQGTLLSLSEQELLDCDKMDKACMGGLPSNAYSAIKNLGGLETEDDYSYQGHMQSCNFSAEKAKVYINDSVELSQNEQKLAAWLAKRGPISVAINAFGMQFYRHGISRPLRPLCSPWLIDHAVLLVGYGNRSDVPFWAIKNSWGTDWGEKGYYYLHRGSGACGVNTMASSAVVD
In words: Cathepsin F Assay. The class given is biochemical. The settings on record: IP from dose response curve; Z-Phe-Arg-AMC substrate, pH 5.5; read-out: hCat F (IP (nM)). Here is the method: Serial dilutions (1/3) from 500 μM down to 0.025 μM of test compounds were prepared in dimethyl sulfoxide (DMSO). Then 0.5 μL of DMSO from each dilution were added to 18.75 μL of assay buffer (MES, 50 mM (pH 5.5); EDTA, 2.5 mM; DTT, 2.5 mM and 10% DMSO) containing human cathepsin F (10 nM) in assay buffer solution. The assay solutions were mixed for 5-10 seconds on a shaker plate and incubated for 15 minutes at room temperature. Z-Phe-Arg-AMC (8 μM) in 6.25 μL of assay buffer was added to the assay solutions. Hydrolysis of the coumarin leaving group (AMC) was followed by spectrofluorometry (Exλ=360 nm; Emλ=460 nm) for 20 minutes. Percent of inhibition were calculated by fitting experimental values to standard mathematical model for dose response curve.

For `N#CC1(NC(=O)[C@@H]2CC3CC3C[C@H]2c2nn(-c3ccc(F)cn3)cc2-c2ccc(N3CCS(=O)(=O)CC3)cc2)CC1` (single isomer, unassigned) [Example 153, (1R,3R,4R,6S) or (1S,3R,4R,6R)-N-(1-cyanocyclopropyl)-4-(4-(4-(1,1-dioxidothiomorpholino)phen-yl)-1-(5-fluoropyridin-2-yl)-1H-pyrazol-3-yl)bicyclo[4.1.0]heptane-3-carboxamide], the IC50 came out at 0.66 nM at human cathepsin K and 265 nM on human cathepsin F.

For the compound `N#CC1(NC(=O)[C@@H]2CC3CC3C[C@H]2c2nn(-c3ccc(Cl)cn3)cc2-c2ccc(N3CCS(=O)(=O)CC3)cc2)CC1` (single isomer, unassigned) [Example 154, (1R,3R,4R,6S) or (1S,3R,4R,6R)-4-(1-(5-chloropyridin-2-yl)-4-(4-(1,1-dioxidothiomorpholino)phen-yl)-1H-pyrazol-3-yl)-N-(1-cyanocyclopropyl)bicyclo [4.1.0]heptane-3-carboxamide], the IC50 on human cathepsin K turned out to be 0.74 nM; on human cathepsin F, 279 nM.

`N#CC1(NC(=O)[C@@H]2CC3CC3C[C@H]2c2nn(-c3ccc(Cl)cn3)cc2-c2ccc(N3CCS(=O)(=O)CC3)cc2)CC1` (single isomer, unassigned) [Example 155]: the IC50 came to 0.56 nM on human cathepsin K and 197 nM at human cathepsin F.

For the compound `N#CC1CCN(c2ccc(-c3cn(-c4ccc(F)cc4)nc3[C@@H]3CCCC[C@H]3C(=O)NC3(C#N)CC3)cc2)CC1` [Example 1, (1R,2R)—N-(1-Cyanocyclopropyl)-2-(4-(4-(4-cyanopiperidin-1-yl)phenyl)-1-(4-fluorophenyl)-1H-pyrazol-3-yl)cyclohexanecarboxamide], the IC50 is 2.72 nM at human cathepsin K and 698 nM on human cathepsin F.

Turning to `COc1cccc(-n2cc(-c3ccc(N4CCS(=O)(=O)CC4)cc3)c([C@@H]3CCCC[C@H]3C(=O)NC3(C#N)CC3)n2)c1` [Example 2, (1R,2R)—N-(1-Cyanocyclopropyl)-2-(4-(4-(1,1-dioxidothiomorpholino)phenyl)-1-(3-methoxyphenyl)-1H-pyrazol-3-yl)cyclohexanecarboxamide], the IC50 amounted to 0.99 nM on human cathepsin K and 494 nM at human cathepsin F.

As to `N#CC1(NC(=O)[C@@H]2CCCC[C@H]2c2nn(-c3ccc(F)cn3)cc2-c2ccc(N3CCS(=N)(=O)CC3)cc2)CC1` [Example 5, (1R,2R)—N-(1-Cyanocyclopropyl)-2-(1-(5-fluoropyridin-2-yl)-4-(4-(1-imino-1-oxidothiomorpholino)phenyl)-1H-pyrazol-3-yl)cyclohexanecarboxamide], the figures for the IC50 on human cathepsin K and on human cathepsin F were 1.53 nM and 877 nM, respectively.

On to `CC(C)OC(=O)N1CC(c2ccc(-c3cn(-c4ccc(F)cc4)nc3[C@@H]3CCCC[C@H]3C(=O)NC3(C#N)CC3)cc2)C1` [Example 6, Isopropyl 3-(4-(3-((1R,2R)-2-((1-cyanocyclopropyl)carbamoyl)cyclohexyl)-1-(4-fluorophenyl)-1H-pyrazol-4-yl)phenyl)azetidine-1-carboxylate], for which the IC50 came to 0.53 nM at human cathepsin K and 49 nM at human cathepsin F.

Turning to `Cc1ccc(-n2cc(-c3ccc(N4CCS(=O)(=O)CC4)cc3)c([C@@H]3CCCC[C@H]3C(=O)NC3(C#N)CC3)n2)nn1` [Example 7, (1R,2R)—N-(1-Cyanocyclopropyl)-2-(4-(4-(1,1-dioxidothiomorpholino)phenyl)-1-(6-methylpyridazin-3-yl)-1H-pyrazol-3-yl)cyclohexanecarboxamide], the IC50 turned out to be 1.54 nM at human cathepsin K and 517 nM at human cathepsin F.

With `N#CC1(NC(=O)[C@@H]2CCCC[C@H]2c2nn(-c3cncc(Cl)c3)cc2-c2ccc(N3CCS(=O)(=O)CC3)cc2)CC1` [Example 8, (1R,2R)-2-(1-(5-Chloropyridin-3-yl)-4-(4-(1,1-dioxidothiomorpholino)phenyl)-1H-pyrazol-3-yl)-N-(1-cyanocyclopropyl)cyclohexanecarboxamide], the results for the IC50 on human cathepsin K and on human cathepsin F were 0.75 nM and 215 nM, respectively.

Take `CN=S1(=O)CCN(c2ccc(-c3cn(-c4ccc(F)cn4)nc3[C@@H]3CC(F)(F)CC[C@H]3C(=O)NC3(C#N)CC3)cc2)CC1` [Example 9, (1R,2R)—N-(1-Cyanocyclopropyl)-4,4-difluoro-2-(1-(5-fluoropyridin-2-yl)-4-(4-(1-(methylimino)-1-oxidothiomorpholino)phenyl)-1H-pyrazol-3-yl)cyclohexanecarboxamide]: the values for the IC50 at human cathepsin K and on human cathepsin F were 2.56 nM and 3670 nM, respectively.

Turning to `N#CC1(NC(=O)[C@@H]2C[C@@H](F)CC[C@H]2c2nn(-c3ccc(F)cn3)cc2-c2ccc(N3CCS(=O)(=O)CC3)cc2)CC1` [Example 10, (1R,2R,5S)—N-(1-Cyanocyclopropyl)-2-(4-(4-(1,1-dioxidothiomorpholino)phenyl)-1-(5-fluoropyridin-2-yl)-1H-pyrazol-3-yl)-5-fluorocyclohexanecarboxamide], the IC50 was determined as 0.89 nM at human cathepsin K and 1050 nM at human cathepsin F.

As for `N#CC1(NC(=O)[C@@H]2CC(F)(F)CC[C@H]2c2nn(-c3ccc(F)cc3)c(CO)c2-c2ccc(N3CCS(=O)(=O)CC3)cc2)CC1` [Example 11, (1R,2R)—N-(1-Cyanocyclopropyl)-2-(4-(4-(1,1-dioxidothiomorpholino)phenyl)-1-(4-fluorophenyl)-5-(hydroxymethyl)-1H-pyrazol-3-yl)-5,5-difluorocyclohexanecarboxamide], the IC50 on human cathepsin K was found to be 1.41 nM; on human cathepsin F it was 125 nM.

`N#CC1(NC(=O)[C@@H]2CC(F)(F)CC[C@H]2c2nn3ccccc3c2-c2ccc(C(=O)N3CCOCC3)cc2)CC1` [Example 13, (1R,2R)—N-(1-cyanocyclopropyl)-5,5-difluoro-2-(3-(4-(morpholine-4-carbonyl)phenyl)pyrazolo[1,5-a]pyridin-2-yl)cyclohexanecarboxamide]: the IC50 on human cathepsin K is 4.84 nM; on human cathepsin F it was 339 nM.

As for `N#CC1(NC(=O)[C@@H]2C[C@@H](F)CC[C@H]2c2nn(-c3ccc(F)cn3)cc2-c2ccc(N3CCS(=N)(=O)CC3)cc2)CC1` [Example 14, (1R,2R,5S)-N-(1-cyanocyclopropyl)-5-fluoro-2-(1-(5-fluoropyridin-2-yl)-4-(4-(1-imino-1-oxidothiomorpholino)phenyl)-1H-pyrazol-3-yl)cyclohexanecarboxamide], the IC50 on human cathepsin K turned out to be 2 nM; at human cathepsin F, 2020 nM.

For `CN=S1(=O)CCN(c2ccc(-c3cn(-c4ccc(F)cc4)nc3[C@@H]3CC[C@H](F)C[C@H]3C(=O)NC3(C#N)CC3)cc2)CC1` [Example 15, (1R,2R,5S)-N-(1-cyanocyclopropyl)-5-fluoro-2-(1-(4-fluorophenyl)-4-(4-(1-(methylimino)-1-oxidothiomorpholino)phenyl)-1H-pyrazol-3-yl)cyclohexanecarboxamide], the IC50 on human cathepsin K came to 3 nM; at human cathepsin F it was 1780 nM.

In the case of `N#CC1(NC(=O)[C@@H]2C[C@@H](F)CC[C@H]2c2nn(-c3ccc(F)cc3)cc2-c2ccc(N3CCS(=N)(=O)CC3)cc2)CC1` [Example 16, (1R,2R,5S)-N-(1-cyanocyclopropyl)-5-fluoro-2-(1-(4-fluorophenyl)-4-(4-(1-imino-1-oxidothiomorpholino)phenyl)-1H-pyrazol-3-yl)cyclohexanecarboxamide], the IC50 at human cathepsin K came to 2.83 nM; on human cathepsin F it was 2600 nM.

In the case of `CN=S1(=O)CCN(c2ccc(-c3cn(-c4ccc(F)cn4)nc3[C@@H]3CC[C@H](F)C[C@H]3C(=O)NC3(C#N)CC3)cc2)CC1` [Example 17, (1R,2R,5S)-N-(1-cyanocyclopropyl)-5-fluoro-2-(1-(5-fluoropyridin-2-yl)-4-(4-(1-(methylimino)-1-oxidothiomorpholino)phenyl)-1H-pyrazol-3-yl)cyclohexanecarboxamide], the IC50 amounted to 3.22 nM at human cathepsin K and 1410 nM on human cathepsin F.

Consider `CC(C)(C)N=S1(=O)CCN(c2ccc(-c3cn(-c4ccc(F)cc4)nc3[C@@H]3CCCC[C@H]3C(=O)NC3(C#N)CC3)cc2)CC1` [Example 18, (1R,2R)-2-(4-(4-(1-(tert-butylimino)-1-oxidothiomorpholino)phenyl)-1-(4-fluorophenyl)-1H-pyrazol-3-yl)-N-(1-cyanocyclopropyl)cyclohex-anecarboxamide], for which the figures for the IC50 at human cathepsin K and at human cathepsin F were 5 nM and 1290 nM, respectively.

Regarding `N#CN=S1(=O)CCN(c2ccc(-c3cn(-c4ccc(F)cc4)nc3[C@@H]3CCCC[C@H]3C(=O)NC3(C#N)CC3)cc2)CC1` [Example 19, (1R,2R)-N-(1-cyanocyclopropyl)-2-(4-(4-(1-(cyanoimino)-1-oxidothiomorpholino)phenyl)-1-(4-fluorophenyl)-1H-pyrazol-3-yl)cyclohexanecarboxamide], the IC50 at human cathepsin K amounted to 2.2 nM; on human cathepsin F it was 809 nM.

Consider `N#CC1(NC(=O)[C@@H]2CCC(F)(F)C[C@H]2c2nn(-c3ccc(F)cn3)cc2-c2ccc(N3CCS(=N)(=O)CC3)cc2)CC1` [Example 20, (1R,2R)-N-(1-cyanocyclopropyl)-4,4-difluoro-2-(1-(5-fluoropyridin-2-yl)-4-(4-(1-imino-1-oxidothiomorpholino)phenyl)-1H-pyrazol-3-yl)cyclohexanecarboxamide], for which the IC50 at human cathepsin K came to 6.81 nM; at human cathepsin F, 1820 nM.
